Measurements reported in US5278143A, “Prophylactic and therapeutic methods for treating interleukin-mediated edemas” (Trustees of Boston University, priority 1991, dated 1994).
Residues, ends and D or L forms follow the SMILES beside them.

Columns and labels:
IL-2 induced edema [1] = experiment: IL-2 induced vascular leak syndrome, organ wet to dry (W/D) weight ratios; format: in vivo, rats; settings: for Lung wet to dry weight ratio, effect of agent on IL-2 edema: agent 1 uM co-treatment with 10^6 U/ml IL-2, p<0.05, FIG. 5; for Heart wet to dry weight ratio, effect of agent on IL-2 edema: agent 1 uM co-treatment with 10^6 U/mml IL-2, p<0.01, FIG. 4; for Kidney wet to dry ratio, effect of agent on IL-2 edema: agent 1 uM plus 10^6 U/ml IL-2, FIG. 2; for Liver wet to dry ratio, effect of agent with IL-2: agent 1 uM plus IL-2 co-treatment, FIG. 3; for Spleen wet to dry ratio, effect of agent with IL-2: agent plus 10^6 U/ml IL-2, FIG. 1
Experimental: (§1) 1. Assay Models: Vascular leak syndrome is induced rapidly in adult, male rats (500 g) by a continuous infusion for 1 h of 10^6 units of IL-2 (n=36). Five hours later the animals are killed and edema is quantitated by measuring wet to dry (W/D) ratios for the lungs, kidneys, liver, heart, and spleen.
(§2) 2. Controls: Animals are pretreated with 0.5 ml saline for 30 min. prior to the IL-2 infusion (n=28).
(§3) 3. Experimental Animals: Each animal is pretreated with either Phallin A (antamanide) or Phallin B (phalloidin), 20 ug/0.5 ml saline as a single bolus 30 min. prior to the infusion of IL-2 (n=24). Each animal then receives at 30 min. intervals a booster injection of 20 ug of Phallin A or Phallin B for the duration (6 h) of the experiments.

IL-2 induced edema [2] = experiment: IL-2 induced vascular leak syndrome, protein concentration of bronchoalveolar lavage fluid; format: in vivo, rats; settings: agent 1 uM and 10^6 U/ml Interleukin-2, compared with 10^6 U/ml Interleukin-2 alone, FIG. 6
Experimental: as §1, §2, §3
4. Protein Analysis: Samples obtained by bronchoalveolar lavage are quantitated for protein concentration as another means of determining the relative loss of barrier integrity in the experimental animals compared to controls.

phalloidin poisoning = settings: cited from earlier work
IL-2 induced edema [3] = experiment: IL-2 induced vascular leak syndrome, organ wet to dry (W/D) weight ratios; format: in vivo, rats; settings: for Spleen wet to dry ratio (splenic edema) / Kidney wet to dry ratio (renal edema) / Liver wet to dry ratio (hepatic edema) / Heart wet to dry weight ratio (cardiac edema) / Lung wet to dry weight ratio (pulmonary edema): agent alone, 1 uM; for Spleen wet to dry ratio (splenic edema): FIG. 1; for Kidney wet to dry ratio (renal edema): FIG. 2; for Liver wet to dry ratio (hepatic edema): FIG. 3; for Heart wet to dry weight ratio (cardiac edema): FIG. 4; for Lung wet to dry weight ratio (pulmonary edema): FIG. 5
albino mice = settings: intramuscularly; cited from earlier work
mice or rats = settings: high dose levels, intramuscularly; cited from earlier work

Compound	Lung wet to dry weight ratio, effect of agent on IL-2 edema (IL-2 induced edema [1])	Heart wet to dry weight ratio, effect of agent on IL-2 edema (IL-2 induced edema [1])	Kidney wet to dry ratio, effect of agent on IL-2 edema (IL-2 induced edema [1])	Liver wet to dry ratio, effect of agent with IL-2 (IL-2 induced edema [1])	Spleen wet to dry ratio, effect of agent with IL-2 (IL-2 induced edema [1])	Protein concentration in bronchoalveolar lavage fluid (IL-2 induced edema [2])	Spleen wet to dry ratio (splenic edema) (IL-2 induced edema [3])	Kidney wet to dry ratio (renal edema) (IL-2 induced edema [3])	Liver wet to dry ratio (hepatic edema) (IL-2 induced edema [3])	Heart wet to dry weight ratio (cardiac edema) (IL-2 induced edema [3])	Lung wet to dry weight ratio (pulmonary edema) (IL-2 induced edema [3])	other results
CC(C)[C@@H]1NC(=O)[C@H](Cc2ccccc2)NC(=O)[C@H](Cc2ccccc2)NC(=O)[C@@H]2CCCN2C(=O)[C@@H]2CCCN2C(=O)[C@H](Cc2ccccc2)NC(=O)[C@H](Cc2ccccc2)NC(=O)[C@H](C)NC(=O)[C@@H]2CCCN2C(=O)[C@@H]2CCCN2C1=O [antamanide] (cyclo(AFFPPFFVPP))	significantly reduced	significantly reduced	signnificantly improved (p<0.05)	No significant change in wet/dry weight ratio	remained unmodified	drastically reduced the accumulation and concentration of protein	did not produce any significant splenic edema	did not produce any significant renal edema	did not produce any significant hepatic edema	did not produce any significant cardiac edema	did not produce any significant pulmonary edema	Lung wet to dry weight ratio, effect of agent on IL-2 edema (IL-2 induced edema [1]; listed as Phallin A): prevented IL-2 induced edema; Heart wet to dry weight ratio, effect of agent on IL-2 edema (IL-2 induced edema [1]; listed as Phallin A): prevented IL-2 induced edema; Kidney wet to dry ratio, effect of agent on IL-2 edema (IL-2 induced edema [1]; listed as Phallin A): prevented IL-2 induced edema; Liver wet to dry ratio, effect of agent with IL-2 (IL-2 induced edema [1]; listed as Phallin A): appear unaffected; toxicity of the substance itself (phalloidin poisoning; in vivo): completely non-toxic of itself; effect on toxic effects of fatal doses of phalloidin (phalloidin poisoning; therapeutic doses): capable of actually annulling the toxic effects of fatal doses of phalloidin; Spleen wet to dry ratio, effect of agent with IL-2 (IL-2 induced edema [3]; agent plus 10^6 U/ml IL-2, FIG. 1, listed as Phallin A): appear unaffected
Phalloidin	significantly reduced	significantly reduced	significantly (p<0.05) worsened	produced significant (p<0.05) edema	remained unmodified	drastically reduced the accumulation and concentration of protein	did not produce any significant splenic edema	did not produce any significant renal edema	did not produce any significant hepatic edema	did not produce any significant cardiac edema	did not produce any significant pulmonary edema	Lung wet to dry weight ratio, effect of agent on IL-2 edema (IL-2 induced edema [1]; listed as Phallin B): decreases IL-2 induced edema; Heart wet to dry weight ratio, effect of agent on IL-2 edema (IL-2 induced edema [1]; listed as Phallin B): decreases IL-2 induced edema; Kidney wet to dry ratio, effect of agent on IL-2 edema (IL-2 induced edema [1]; listed as Phallin B): apparently produces edema; Liver wet to dry ratio, effect of agent with IL-2 (IL-2 induced edema [1]; listed as Phallin B): apparently produces edema; LD50 dose (albino mice): 3.3 micrograms per gram of body weight; time to death (mice or rats): death of mice or rats within one or two hours
